# According to ChEMBL document CHEMBL4261654, “Synthesis and in vitro antitumor activity of novel alkenyl derivatives of pyridoxine, bioisosteric analogs of feruloyl methane” (Bioorg Med Chem, 2018):
# Calls of active or inactive are those of the source. The calls are words filed in the database; no cut-off is given here.
# Key:
# [1] = test system: MCF7; experiment: Antiproliferative activity against human MCF7 cells after 72 hrs by MTT assay; assay type: functional, cell-based; conditions: MCF7, 72 h
# [2] = test system: HEK293; experiment: Antiproliferative activity against human HEK293 cells after 72 hrs by MTT assay; assay type: cell-based; conditions: HEK293, 72 h
# [3] = Antioxidant activity assessed as ferric ion reducing activity at 20 to 320 umol after 20 mins by FRAP assay; assay type: functional
# [4] = test system: PC-3; experiment: Antiproliferative activity in human PC3 cells at 10 uM measured after 120 hrs measured each 15 mins by RTCA DP based cellular impedance analysis; assay type: functional
# [5] = test system: PC-3; experiment: Antiproliferative activity in human PC3 cells at 0.2 to 2 uM measured during 120 hrs each 15 mins by RTCA DP based cellular impedance analysis; assay type: functional, cell-based
# [6] = Antiproliferative activity against HSF cells after 72 hrs by MTT assay; assay type: cell-based; conditions: Homo sapiens
# [7] = test system: PC-3; experiment: Antiproliferative activity against human PC3 cells after 72 hrs by MTT assay; assay type: functional, cell-based; conditions: PC-3, 72 h
# [8] = test system: A498; experiment: Antiproliferative activity against human A498 cells after 72 hrs by MTT assay; assay type: functional, cell-based; conditions: A498, 72 h
# [9] = test system: SNB-19; experiment: Antiproliferative activity against human SNB19 cells after 72 hrs by MTT assay; assay type: functional, cell-based; conditions: SNB-19, 72 h
# [10] = test system: M14; experiment: Antiproliferative activity against human M14 cells after 72 hrs by MTT assay; assay type: functional, cell-based; conditions: M14, 72 h
# [11] = test system: OVCAR-4; experiment: Antiproliferative activity against human OVCAR4 cells after 72 hrs by MTT assay; assay type: functional, cell-based; conditions: OVCAR-4, 72 h
# [12] = test system: NCI-H322M; experiment: Antiproliferative activity against human NCI-H322M cells after 72 hrs by MTT assay; assay type: functional, cell-based
# [13] = test system: HCT-15; experiment: Antiproliferative activity against human HCT15 cells after 72 hrs by MTT assay; assay type: functional, cell-based; conditions: HCT-15, 72 h
# [14] = test system: HCT-116; experiment: Antiproliferative activity against human HCT116 cells after 72 hrs by MTT assay; assay type: functional, cell-based; conditions: HCT-116, 72 h
# [15] = test system: MDA-MB-231; experiment: Antiproliferative activity against human MDA-MB-231 cells after 72 hrs by MTT assay; assay type: functional, cell-based; conditions: MDA-MB-231, 72 h
# [16] = Selectivity index, ratio of IC50 for HSF cells to IC50 for human MCF7 cells; assay type: toxicity; conditions: HSF cells versus MCF7 cells, read-out: Ratio IC50
# [17] = Ratio of compound IC50 to dehydrozingerone IC50 for antiproliferative activity against HSF cells; assay type: cell-based; conditions: human, read-out: Ratio IC50
# [18] = test system: MCF7; experiment: Potency index, ratio of compound IC50 to dehydrozingerone IC50 for antiproliferative activity against human MCF7 cells; assay type: functional
# [19] = test system: PC-3; experiment: Potency index, ratio of compound IC50 to dehydrozingerone IC50 for antiproliferative activity against human PC3 cells; assay type: functional
# [20] = test system: A498; experiment: Potency index, ratio of compound IC50 to dehydrozingerone IC50 for antiproliferative activity against human A498 cells; assay type: functional
# [21] = test system: SNB-19; experiment: Potency index, ratio of compound IC50 to dehydrozingerone IC50 for antiproliferative activity against human SNB19 cells; assay type: functional
# [22] = test system: M14; experiment: Potency index, ratio of compound IC50 to dehydrozingerone IC50 for antiproliferative activity against human M14 cells; assay type: functional
# [23] = test system: OVCAR-4; experiment: Potency index, ratio of compound IC50 to dehydrozingerone IC50 for antiproliferative activity against human OVCAR4 cells; assay type: functional
# [24] = test system: NCI-H322M; experiment: Potency index, ratio of compound IC50 to dehydrozingerone IC50 for antiproliferative activity against human NCI-H322M cells; assay type: functional
# [25] = test system: HCT-15; experiment: Potency index, ratio of compound IC50 to dehydrozingerone IC50 for antiproliferative activity against human HCT15 cells; assay type: functional
# [26] = test system: HCT-116; experiment: Potency index, ratio of compound IC50 to dehydrozingerone IC50 for antiproliferative activity against human HCT116 cells; assay type: functional
# [27] = test system: MDA-MB-231; experiment: Potency index, ratio of compound IC50 to dehydrozingerone IC50 for antiproliferative activity against human MDA-MB-231 cells; assay type: functional
# [28] = test system: PC-3; experiment: Antimigratory activity in human PC3 cells at 0.2 uM measured during 120 hrs each 15 mins by RTCA DP based cellular impedance analysis; assay type: functional
# [29] = test system: PC-3; experiment: Antimigratory activity in human PC3 cells at 2 uM measured during 120 hrs each 15 mins by RTCA DP based cellular impedance analysis; assay type: functional
# [30] = test system: PC-3; experiment: Antimigratory activity in human PC3 cells at 10 uM measured during 120 hrs each 15 mins by RTCA DP based cellular impedance analysis; assay type: functional
# [31] = test system: PC-3; experiment: Cell cycle arrest in human PC3 cells assessed as accumulation at G0/G1 phase at 2 uM after 72 hrs by RNase/propidium iodide staining-based flow cytometric analysis (reference value: 61 +/- 3%); assay type: functional
# [32] = test system: PC-3; experiment: Cell cycle arrest in human PC3 cells assessed as accumulation at S phase at 2 uM after 72 hrs by RNase/propidium iodide staining-based flow cytometric analysis (reference value: 17 +/- 1%); assay type: functional
# [33] = test system: PC-3; experiment: Cell cycle arrest in human PC3 cells assessed as accumulation at G2/M phase at 2 uM after 72 hrs by RNase/propidium iodide staining-based flow cytometric analysis (reference value: 20 +/- 3%); assay type: functional
# [34] = test system: PC-3; experiment: Cell cycle arrest in human PC3 cells assessed as accumulation at G0/G1 phase at 10 uM after 72 hrs by RNase/propidium iodide staining-based flow cytometric analysis (reference value: 61 +/- 3%); assay type: functional
# [35] = test system: PC-3; experiment: Cell cycle arrest in human PC3 cells assessed as accumulation at S phase at 10 uM after 72 hrs by RNase/propidium iodide staining-based flow cytometric analysis (reference value: 17 +/- 1%); assay type: functional
# [36] = test system: PC-3; experiment: Cell cycle arrest in human PC3 cells assessed as accumulation at G2/M phase at 10 uM after 72 hrs by RNase/propidium iodide staining-based flow cytometric analysis (reference value: 20 +/- 3%); assay type: functional
# [37] = test system: PC-3; experiment: Induction of apoptosis in human PC3 cells assessed as necrotic cells at 10 uM after 24 hrs by Annexin V-PE/7-AAD staining-based flow cytometric analysis (reference value: 14%); assay type: functional
# [38] = test system: PC-3; experiment: Induction of apoptosis in human PC3 cells assessed as late apoptotic cells at 10 uM after 24 hrs by Annexin V-PE/7-AAD staining-based flow cytometric analysis (reference value: 8%); assay type: functional
# [39] = test system: PC-3; experiment: Induction of apoptosis in human PC3 cells assessed as early apoptotic cells at 10 uM after 24 hrs by Annexin V-PE/7-AAD staining-based flow cytometric analysis (reference value: 2%); assay type: functional
# [40] = test system: PC-3; experiment: Induction of apoptosis in human PC3 cells assessed as viable cells at 10 uM after 24 hrs by Annexin V-PE/7-AAD staining-based flow cytometric analysis (reference value: 70%); assay type: functional; conditions: PC-3, 24 h, read-out: Activity
# [41] = test system: PC-3; experiment: Induction of apoptosis in human PC3 cells assessed as necrotic cells at 30 uM after 24 hrs by Annexin V-PE/7-AAD staining-based flow cytometric analysis (reference value: 14%); assay type: functional
# [42] = test system: PC-3; experiment: Induction of apoptosis in human PC3 cells assessed as late apoptotic cells at 30 uM after 24 hrs by Annexin V-PE/7-AAD staining-based flow cytometric analysis (reference value: 8%); assay type: functional
# [43] = test system: PC-3; experiment: Induction of apoptosis in human PC3 cells assessed as early apoptotic cells at 30 uM after 24 hrs by Annexin V-PE/7-AAD staining-based flow cytometric analysis (reference value: 2%); assay type: functional
# [44] = test system: PC-3; experiment: Induction of apoptosis in human PC3 cells assessed as viable cells at 30 uM after 24 hrs by Annexin V-PE/7-AAD staining-based flow cytometric analysis (reference value: 70%); assay type: functional; conditions: PC-3, 24 h, read-out: Activity
# [45] = test system: PC-3; experiment: Induction of mitochondrial membrane potential loss in human PC3 cells assessed as fluorescence intensity at 10 uM after 24 hrs by TMRE dye-based flow cytometric analysis (reference value: 10101 +/- 853); assay type: functional
# [46] = test system: PC-3; experiment: Induction of mitochondrial membrane potential loss in human PC3 cells assessed as fluorescence intensity at 20 uM after 24 hrs by TMRE dye-based flow cytometric analysis (reference value: 10101 +/- 853); assay type: functional
# [47] = test system: PC-3; experiment: Induction of mitochondrial membrane potential loss in human PC3 cells assessed as fluorescence intensity at 30 uM after 24 hrs by TMRE dye-based flow cytometric analysis (reference value: 10101 +/- 853); assay type: functional
# [48] = test system: PC-3; experiment: Induction of apoptosis in human PC3 cells assessed as intracellular ROS levels by measuring fluoresence intensity at 10 uM after 24 hrs by DCFH-DA staining-based flow cytometric analysis (reference value: 3176 +/- 398); assay type: functional
# [49] = test system: PC-3; experiment: Induction of apoptosis in human PC3 cells assessed as intracellular ROS levels by measuring fluoresence intensity at 20 uM after 24 hrs by DCFH-DA staining-based flow cytometric analysis (reference value: 3176 +/- 398); assay type: functional
# [50] = test system: PC-3; experiment: Induction of apoptosis in human PC3 cells assessed as intracellular ROS levels by measuring fluoresence intensity at 30 uM after 24 hrs by DCFH-DA staining-based flow cytometric analysis (reference value: 3176 +/- 398); assay type: functional
smiles,measurement,setting,value
CCCCCCCCCC(C)C1OCc2c(/C=C/C(C)=O)nc(C)c(O)c2CO1 (stereo unspecified),IC50,[1],2.9 µM
same,IC50,[2],1.4 µM
CC(=O)/C=C/c1cnc(C)c2c1COC(C(C)(C)C)O2 (stereo unspecified),IC50,[1],4.1 µM
same,IC50,[2],1.2 µM
O=c1c(O)c(-c2ccc(O)c(O)c2)oc2cc(O)cc(O)c12,Activity,[3],Active
CC(=O)/C=C/c1cnc(C)c2c1COC1(CCCCC1)O2,inhibition at 10 µM,[4],25%
same,Activity,[5],inactive
same,IC50,[1],1.1 µM
same,IC50,[2],16 µM
same,IC50,[6],15.6 µM
same,IC50,[7],5.5 µM
same,IC50,[8],6.5 µM
same,IC50,[9],4.7 µM
same,IC50,[10],2.6 µM
same,IC50,[11],19 µM
same,IC50,[12],4.6 µM
same,IC50,[13],1.5 µM
same,IC50,[14],2.8 µM
same,IC50,[15],1.8 µM
same,selectivity ratio,[16],14.2
same,selectivity ratio,[17],7 to 211
same,Ratio IC50,[18],7 - 211
same,Ratio IC50,[19],7 - 211
same,Ratio IC50,[20],7 - 211
same,Ratio IC50,[21],7 - 211
same,Ratio IC50,[22],7 - 211
same,Ratio IC50,[23],7 - 211
same,Ratio IC50,[24],7 - 211
same,Ratio IC50,[25],7 - 211
same,Ratio IC50,[26],7 - 211
same,Ratio IC50,[27],7 - 211
same,inhibition at 0.2 µM,[28],11%
same,inhibition at 2 µM,[29],27%
same,inhibition at 10 µM,[30],47%
same,Activity,[31],61%
same,Activity,[32],18%
same,Activity,[33],19%
same,Activity,[34],52%
same,Activity,[35],17%
same,Activity,[36],29%
same,Activity,[3],inactive
same,Activity,[37],17%
same,Activity,[38],16%
same,Activity,[39],3%
same,viability at 10 µM,[40],63%
same,Activity,[41],6%
same,Activity,[42],52%
same,Activity,[43],3%
same,viability at 30 µM,[44],39%
same,Flu intensity,[45],9999
same,Flu intensity,[46],10524
same,Flu intensity,[47],7587
same,Flu intensity,[48],3680
same,Flu intensity,[49],4486
same,Flu intensity,[50],3085
CC(=O)/C=C/c1cnc(C)c2c1COC(C)(C)O2,IC50,[1],6.6 µM
same,IC50,[2],17 µM
COc1cc(/C=C/C(=O)CC(=O)/C=C/c2ccc(O)c(OC)c2)ccc1O,Activity,[3],Active
CCCCCCCCCC(C)C1OCc2c(/C=C/C(C)=O)cnc(C)c2O1 (stereo unspecified),IC50,[1],2.4 µM
same,IC50,[2],7 µM
O=C1O[C@H]([C@@H](O)CO)C(O)=C1O,Activity,[3],Active
